The record followed here is patent US9879050B2, “Substituted urea depsipeptide analogs as activators of the CLPP endopeptidase” (priority 2013, dated 2018).

In data set [1] the test system is Vero (kidney epithelial cells; ATCC CCL-81). Put plainly: Cytotoxicity assay, CellTiter-Glo cell viability. It is filed as cell-based. The following applies: Vero cells, 72 hours. In outline: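 Vero cells seeded overnight at 37 °C in DMEM with 10% FBS, then exposed to serial dilutions of compound for 72 h. Viability read by CellTiter-Glo luminescence; IC50 from duplicates, given as the range of two independent experiments.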

Data set [2] has as its system S. aureus USA 300 ΔClpP. Put plainly: Minimal inhibitory concentration, microbroth dilution. Format: cell-based, Staphylococcus aureus. The following applies: ClpP inactivated strain. In outline: (§1)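 MICs were determined by CLSI broth microdilution, using two-fold compound dilutions from a final 200 μM and about 10^5 cfu/mL inoculum. Plates were incubated aerobically at 37 °C overnight. The MIC was read visually as the lowest concentration preventing growth.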
A general note: Dilution methods test growth across graded concentrations, often in twofold steps.

Data set [3] relates to S. pneumoniae R6. Described as above. The following applies: Streptococcus pneumoniae, R6, read-out: Minimal Inhibitory Concentration S. pneumoniae R6. Format: cell-based. In outline:
(§2)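 Twofold serial dilutions in broth per CLSI M7-A7 microbroth dilution, incubated aerobically overnight at 37° C. MIC read visually as lowest concentration preventing bacterial growth.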

Data set [4] relates to S. pyogenes ATCC 700294. Described as above. It is filed as cell-based. The following applies: Streptococcus pyogenes, ATCC700294, read-out: Minimal Inhibitory Concentration S. pyogenes ATCC 700294. In outline: as §2
The test system of data set [5] is B. subtilis ATCC 23857. Described as above. Format: cell-based. The following applies: Bacillus subtilis, ATCC23857, read-out: Minimal Inhibitory Concentration B. subtilis ATCC 23857. In short, it runs like this: as §1
Data set [6] has as its system S. aureus ATCC 29213. The description is as above. The following applies: Staphylococcus aureus, ATCC29213, read-out: Minimal Inhibitory Concentration S. aureus ATCC 29213. It is filed as cell-based. In outline:
as §1

Data set [7] relates to S. aureus NRS70. Described as above. Format: cell-based. The following applies: Staphylococcus aureus, NRS70, read-out: Minimal Inhibitory Concentration S. aureus NRS70. In short, it runs like this:
as §1

Data set [8] has as its system S. aureus USA 300. Described as above. It is filed as cell-based. The following applies: Staphylococcus aureus, USA300, read-out: Minimal Inhibitory Concentration S. aureus USA 300. In outline: as §1
The conditions of data set [9]: from C[C@H]1C[C@@H](C(=O)O[C@@H](C)[C@H](NC(=O)OCc2ccccc2)C(=O)OCC(=O)c2ccccc2)N(C(=O)[C@H](C)NC(=O)[C@@H]2CCCCN2C(=O)[C@@H]2CCCN2C(=O)OC(C)(C)C)C1, amide bond, pentafluorophenyl ester (EDC·HCl/pentafluorophenol), then aq NaHCO3, DCM, 1.24 mM, 25.0 °C, 4 steps.

Values after ≈ are worked out from the molar mass of the structure shown.

Compound `Cc1ccc(NC(=O)N[C@@H](Cc2cc(F)cc(F)c2)C(=O)N[C@@H]2C(=O)N3CCCC3C(=O)N(C)[C@@H]([C@H](C)O)C(=O)N[C@@H](C)C(=O)N3C[C@@H](C)CC3C(=O)O[C@H]2C)cc1` (stereo partly drawn) [Compound 35, (S)-3-(3,5-Difluorophenyl)-N-((2S,6S,9S,11aS,17S,18S,20aS)-9-((S)-1-Hydroxyethyl)-2,6,10,18-Tetramethyl-5,8,11,16,20-Pentaoxohexadecahydro-1H,5H,16H-Dipyrrolo[2,1-C:2′,1′-L][1]Oxa[4,7,10,13]Tetraazacyclohexadecin-17-Yl)-2-(3-(P-Tolyl)Ureido)Propanamide] showed an IC50 in data set [1] of 55.7 ± 3.6 µM. Besides, the “Minimal Inhibitory Concentration S. aureus USA 300 ΔClpP” value in [2] worked out at 200 µM. In addition, the MIC in data set [3] was 0.049 µM (≈ 0.0398 µg/mL); in [4], 0.39 µM (≈ 0.317 µg/mL); in [5] it was 0.2 µM (≈ 0.162 µg/mL); in data set [6], 0.2 µM (≈ 0.162 µg/mL); in data set [7], 0.1 µM (≈ 0.0812 µg/mL); in [8] it was 0.2 µM (≈ 0.162 µg/mL).
Consider `Cc1ccc(NC(=O)N[C@@H](Cc2cc(F)cc(F)c2)C(=O)N[C@@H]2C(=O)N3C[C@H](O)CC3C(=O)N(C)[C@@H](C)C(=O)N[C@@H](C)C(=O)N3C[C@@H](C)CC3C(=O)O[C@H]2C)cc1` (stereo partly drawn) [Compound 31, (S)-3-(3,5-Difluorophenyl)-N-((2S,6S,9S,11aS,13R,17S,18S,20aS)-13-Hydroxy-2,6,9,10,18-Pentamethyl-5,8,11,16,20-Pentaoxohexadecahydro-1H,5H,16H-Dipyrrolo[2,1-C:2′,1′-L][1]Oxa[4,7,10,13]Tetraazacyclohexadecin-17-Yl)-2-(3-(P-Tolyl)Ureido)Propanamide], for which the IC50 in data set [1] is over 100 µM. Besides, the “Minimal Inhibitory Concentration S. aureus USA 300 ΔClpP” value in data set [2] was over 200 µM. Also, the MIC in data set [3] was found to be 0.195 µM (≈ 0.156 µg/mL); in [4], 0.78 µM (≈ 0.622 µg/mL); in [5], 0.39 µM (≈ 0.311 µg/mL); in [6], 0.39 µM (≈ 0.311 µg/mL); in [7], 0.39 µM (≈ 0.311 µg/mL).
Take `C[C@H]1C[C@H]2C(=O)O[C@@H](C)[C@H](NC(=O)OCc3ccccc3)C(=O)N3CCC[C@H]3C(=O)N3CCCC[C@H]3C(=O)N[C@@H](C)C(=O)N2C1`: the ring closure, yield of all isomers in data set [9] was determined as 74%.
Turning to `Cc1ccc(NC(=O)N[C@@H](Cc2cc(F)cc(F)c2)C(=O)N[C@@H]2C(=O)N3CCCC3C(=O)N(C)[C@@H]([C@H](C)O)C(=O)N[C@@H](C)C(=O)N3C[C@H](C)CC3C(=O)O[C@H]2C)cc1` (stereo partly drawn) [Compound 38, (S)-3-(3,5-Difluorophenyl)-N-((2R,6S,9S,11aS,17S,18S,20aS)-9-((S)-1-Hydroxyethyl)-2,6,10,18-Tetramethyl-5,8,11,16,20-Pentaoxohexadecahydro-1H,5H,16H-Dipyrrolo[2,1-C:2′,1′-L][1]Oxa[4,7,10,13]Tetraazacyclohexadecin-17-Yl)-2-(3-(P-Tolyl)Ureido)Propanamide], it took 46.1 ± 5.5 µM to reach half-maximal inhibition in data set [1] (IC50). In data set [2], the “Minimal Inhibitory Concentration S. aureus USA 300 ΔClpP” value is 200 µM. Besides, the MIC came to 0.02 µM (≈ 0.0162 µg/mL) in data set [3]; 0.1 µM (≈ 0.0812 µg/mL) in [4]; 0.05 µM (≈ 0.0406 µg/mL) in data set [5]; 0.05 µM (≈ 0.0406 µg/mL) in data set [6]; 0.05 µM (≈ 0.0406 µg/mL) in data set [7]; 0.1 µM (≈ 0.0812 µg/mL) in [8].

The term IC50 denotes the concentration at which inhibition is half-maximal. Higher therefore signals lower potency.
